Data from US9326666B2, “Multi-channel medical imaging system” (Beth Israel Deaconess Medical Center, priority 2002, dated 2016).

Key:
[1] = In vivo early half-life of dye in blood; conditions: small molecule form
Text: This permits multiple injections during a single procedure.

[2] = Solubility of dye in blood; conditions: small molecule form
[3] = test system: mitochondria and/or endoplasmic reticulum; experiment: Partitioning of dye into subcellular organelles; format: cell-based
Text: (§1) More generally, IR-786 may be used for non-radioactive imaging of areas of ischemia in the living heart, or other visualization of the viability of other tissues.

[4] = Imaging of blood flow in the heart of a living laboratory rat after thoracotomy; format: in vivo
Text: as §1

| Structure (SMILES) | in vivo early half-life [1] | solubility in blood [2] | partitioning into mitochondria and/or endoplasmic reticulum [3] | imaging of blood flow in the heart [4] |
| --- | --- | --- | --- | --- |
| CC1(C)C(/C=C/C=C/C=C/C=C2\N(CCCCS(=O)(=O)O)c3ccc4ccccc4c3C2(C)C)=[N+](CCCCS(=O)(=O)[O-])c2ccc3ccccc3c21 [Indocyanine green, indocyanine green] | shorter half-life | somewhat less soluble in blood |  |  |
| CN1C(=CC=C2CCCC(C=CC3=[N+](C)c4ccccc4C3(C)C)=C2Cl)C(C)(C)c2ccccc21.[O-][Cl+3]([O-])([O-])[O-] [IR-786] |  |  | partitions efficiently into mitochondria and/or endoplasmic reticulum in a concentration-dependent manner | successfully applied |
